Data reported in ChEMBL document CHEMBL3137381, “MMV Box Onchocerca lienalis screening set”.

Columns and labels:
Format in all cases: functional
Onchocerca lienalis [1] = assay: MMV: Percent motility assay at a compound concentration of 1.9e-7 M. Activity score legend: 3: Active, 2: Moderately active; 1: Inactive, 0: Toxic; conditions: at 0.19 µM
Onchocerca lienalis [2] = assay: MMV: Percent motility assay at a compound concentration of 1.25e-5 M. Activity score legend: 3: Active, 2: Moderately active; 1: Inactive, 0: Toxic; conditions: at 12.5 µM
Onchocerca lienalis [3] = assay: MMV: Percent motility assay at a compound concentration of 7.8e-7 M. Activity score legend: 3: Active, 2: Moderately active; 1: Inactive, 0: Toxic; conditions: at 0.78 µM
Onchocerca lienalis [4] = assay: MMV: Percent motility assay at a compound concentration of 3.1e-6 M. Activity score legend: 3: Active, 2: Moderately active; 1: Inactive, 0: Toxic; conditions: at 3.1 µM

Compound	Motility (Onchocerca lienalis [1]) [%]	Motility (Onchocerca lienalis [2]) [%]	Motility (Onchocerca lienalis [3]) [%]	Motility (Onchocerca lienalis [4]) [%]
CCOc1ccccc1CN1CCc2nc3cc(C(C)(C)C)nn3c(O)c2C1	100	100	100	100
Cc1cc(N2CCCC2)nc(Nc2ccc(NC(=O)CCc3ccccc3)cc2)n1	100	13.33	100	66.66
CN1CCN(c2ncnc3c2[nH]c2ccc(Cl)cc23)CC1	100	100	100	100
O=C1c2ccccc2-c2nnc(-c3ccc(Br)cc3)cc21	100	100	100	100
CCOC(=O)C1=C(C)N=c2sc(=Cc3cc(Cl)ccc3O)c(=O)n2C1c1ccc(OC)cc1 (configuration not stated)	100	100	100	100
Cc1nc2ccccc2c(O)c1CC=C(Cl)Cl	100	100	100	100
FC(F)(F)c1cccc(Nc2nc3ccccc3nc2Nc2cccc(C(F)(F)F)c2)c1	100	100	100	100
CN(C)CCCNCc1ccc(-c2ccc(F)c(Cl)c2)o1.Cl	100	100	100	100
O=c1nc(C=Cc2ccc(Br)cc2)oc2ccccc12	100	100	100	100
COc1ccc2nc(N)nc(C)c2c1	100	100	100	100
CC(=O)c1ccc(NC(=O)CSc2nc(-c3ccccc3Cl)ns2)cc1	100	100	100	100
COc1ccc(C(=O)NC(c2ccc(Cl)cc2Cl)c2cc(Cl)c3cccnc3c2O)cc1 (configuration not stated)	100	100	100	100
CCC(=O)Nc1nnc(Cc2ccc(OC)c(OC)c2)s1	100	100	100	100
O=C(NCCCN1CCC(N2CCCCC2)CC1)C1=Cc2cc(Br)ccc2OC1	100	100	100	100
Cc1ccnc(NC(c2cccc(OCc3ccccc3)c2)c2ccc3cccnc3c2O)c1 (configuration not stated)	100	100	100	100
O=c1cc(NC2CCN(CCCc3ccccc3)CC2)c2cc(Cl)ccc2o1	100	100	100	100
Cc1ccc(OCCCCCCNCCO)c(C)c1	100	100	100	100
COc1cccc(C(=O)Nc2ccc(-c3nc4ccccc4[nH]3)cc2)c1	100	100	100	100
CC1CCN(Cc2c(O)ccc3cc(-c4nc5ccccc5s4)c(=O)oc23)CC1	100	100	100	100
Cc1ccc2cc3c(N)c4c(C)ccc(C)c4nc3nc2c1	100	100	100	100
CC(C)CCNCC(O)Cn1c2ccccc2c2ccccc21.Cl (configuration not stated)	100	100	100	100
CCOC(=O)c1cnc2ccc(Cl)cc2c1NCCCN(C)C	100	100	100	100
O=C(Nc1ccc(C23CC4CC(CC(c5ccccc5)(C4)C2)C3)cc1)c1cccs1	100	100	100	100
O=C1c2ccccc2C2=Nc3ccccc3SC(c3cccc(F)c3)C12 (configuration not stated)	100	100	100	100
Cc1ccccc1OCCSc1nc2ccc(NC(=O)c3ccccc3)cc2s1	100	100	100	100
CCOC(=O)c1cnc2c(C)cccc2c1Nc1ccc(C(C)=O)cc1	100	100	100	100
Cc1ccc(C2CC(C(F)(F)F)n3nc(C(=O)N4CCN(C(c5ccccc5)c5ccccc5)CC4)cc3N2)cc1 (configuration not stated)	100	100	100	100

Compound	Motility (Onchocerca lienalis [1]) [%]	Motility (Onchocerca lienalis [2]) [%]	Motility (Onchocerca lienalis [3]) [%]	Motility (Onchocerca lienalis [4]) [%]
Cc1ccc2nc(C)cc(Nc3cccc(C(F)(F)F)c3)c2c1.Cl	100	100	100	100
CC(C)(C)c1ccc(C(=O)Nc2c3c(nn2-c2cccc(Cl)c2)CSC3)cc1	100	100	100	100
CCOc1cc2c(cc1OCC)C(c1cc(Cl)c(O)c(OCC)c1)NCC2 (configuration not stated)	100	100	100	100
COc1ccc(N2CCN(C(CNC(=O)CC(C)(C)C)c3ccc4c(c3)OCO4)CC2)cc1 (configuration not stated)	100	100	100	100
COc1cccc(C(=O)NC(c2ccc(C)cc2)c2cc(Cl)c3cccnc3c2O)c1 (configuration not stated)	100	0	100	33.33
CCCCCCn1c(=N)n(CC(O)COc2cccc(C)c2)c2ccccc21.Cl (configuration not stated)	100	100	100	100
COc1ccc(-c2cc(=O)oc3c4c(ccc23)OCN(Cc2ccc(F)cc2)C4)cc1	100	100	100	100
CCOC(=O)C1(Cc2ccccc2)CCN(Cc2cccc(OC)c2O)CC1	100	100	100	100
Oc1ccc(C(=C(Cl)Cl)c2ccc(O)cc2)cc1	100	100	100	100
CC(C)(C)c1ccc2c(c1)CN(Cc1ccc(Cl)cc1)CO2	100	100	100	100
CCCCC(O)(c1ccc(Cl)cc1)C(CN1CCOCC1)c1ccc(Cl)cc1.Cl (configuration not stated)	100	100	100	100
COc1ccc(OC)c(C2C3=C(CC(C)(C)CC3=O)N(c3ccc(Cl)c(Cl)c3)C3=C2C(=O)CC(C)(C)C3)c1	100	100	100	100
Cc1cc(=O)oc2c1ccc1oc(C(=O)c3ccccc3)c(C)c12	100	100	100	100
COc1ccc(CN2CCN(Cc3ccccc3)CC2)c(O)c1	100	100	100	100
COc1ccc2c(c1OC)C(=O)N1c3ccccc3N=C(c3ccc(C)cc3)CC21 (configuration not stated)	100	100	100	100
CCCCCCc1cc(O)c2c3c(c(=O)oc2c1)CCC(C)C3 (configuration not stated)	100	100	100	100
Cl.OC(CNCc1ccccc1)Cn1c2ccccc2c2ccccc21 (configuration not stated)	100	100	100	100
COc1ccc(CCNC(=O)c2cc(S(=O)(=O)N3CC(C)CC(C)C3)ccc2Sc2ccc(F)cc2)cc1OC (configuration not stated)	100	100	100	100
CC1=C(CC(=O)c2cccc([N+](=O)[O-])c2)C(=O)c2ccccc2C1=O	100	100	100	100
OC1CCCCC1C1(NC(=S)Nc2ccccc2)CCCCC1 (configuration not stated)	100	100	100	100
OC1=C2C(=Nc3ccccc3SC2c2ccc(Br)cc2)c2ccccc21 (configuration not stated)	100	100	100	100
COc1ccc(C)c2sc(N(Cc3cccnc3)C(=O)c3ccc(C#N)cc3)nc12	100	100	100	100
COc1ccc(C(=O)C2CC2c2ccc(Cl)cc2)cc1 (configuration not stated)	100	100	100	100
CCCCCn1c(=N)n(CC(O)COc2cccc(C)c2)c2ccccc21.Cl (configuration not stated)	100	100	100	100
CCN1CCN(c2c(C(=O)c3ccccc3)cnc3cc(OC)c(OC)cc23)CC1	100	100	100	100
Cc1ccc(S(=O)(=O)c2c(COC(=O)c3cccc(C)c3)c(-c3ccccc3)nn2C)cc1	100	100	100	100
